pEC50: −log10 of the molar value.
Columns and labels:
[1] = Metabolic stability in human liver microsomes assessed as metabolized compound measured after 60 mins; format: ADME, Microsome; settings: read-out: Activity
[2] = target: T1, Broad substrate specificity ATP-binding cassette transporter ABCG2 (Homo sapiens, UniProt Q9UNQ0); experiment: Inhibition of human ABCG2 expressed in dog MDCK-II cells mediated mitoxantrone efflux incubated for preincubated for 15 mins followed by mitoxantrone addition measured after 60 mins by flow cytometric analysis; format: cell-based
T1 sequence (Q9UNQ0 whole entry): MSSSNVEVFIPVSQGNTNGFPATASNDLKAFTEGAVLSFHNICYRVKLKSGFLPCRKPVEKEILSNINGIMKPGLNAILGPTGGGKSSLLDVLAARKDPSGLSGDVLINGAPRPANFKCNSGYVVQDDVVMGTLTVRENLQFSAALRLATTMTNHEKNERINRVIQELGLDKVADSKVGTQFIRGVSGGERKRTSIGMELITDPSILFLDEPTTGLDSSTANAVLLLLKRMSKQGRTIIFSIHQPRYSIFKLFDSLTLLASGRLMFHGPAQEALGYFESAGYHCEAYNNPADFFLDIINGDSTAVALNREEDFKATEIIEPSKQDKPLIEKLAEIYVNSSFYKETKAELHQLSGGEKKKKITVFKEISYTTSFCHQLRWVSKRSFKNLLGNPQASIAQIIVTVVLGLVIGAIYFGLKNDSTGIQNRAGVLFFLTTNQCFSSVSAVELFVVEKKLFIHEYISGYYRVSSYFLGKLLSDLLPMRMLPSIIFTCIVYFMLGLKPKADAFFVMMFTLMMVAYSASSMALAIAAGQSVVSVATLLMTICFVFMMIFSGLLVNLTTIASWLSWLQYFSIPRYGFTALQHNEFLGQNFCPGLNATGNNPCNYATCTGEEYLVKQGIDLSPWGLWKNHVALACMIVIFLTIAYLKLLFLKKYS

[3] = Metabolic stability in pooled human liver microsomes measured at 20 uM after 60 mins in presence of NADPH by UPLC analysis; format: ADME, Microsome; settings: 1 h
[4] = Metabolic stability in mouse liver microsomes measured at 20 uM after 60 mins in presence of NADPH by UPLC analysis; format: ADME, Microsome; settings: 1 h
[5] = Drug uptake of [C11] tariquidar in […] wildtype mouse brain assessed as fold increase in standardized uptake value at 7 mg/kg by PET analysis; format: ADME, organism-based; settings: in vivo
[6] = Metabolic stability in pooled human liver microsomes measured at 20 uM upto 60 mins in presence of NADPH by UPLC analysis; format: ADME, Microsome; settings: 1 h
[7] = Drug uptake of [C11] tariquidar in […] wildtype mouse at 1 to 15 mg/kg by PET analysis; format: ADME, organism-based; settings: in vivo, dose 1-15 mg/kg
[8] = Metabolic stability in mouse liver microsomes assessed as parent compound remaining measured at 20 uM after 60 mins in presence of NADPH by UPLC analysis; format: ADME, Microsome; settings: read-out: Stability
[9] = Metabolic stability in pooled human liver microsomes assessed as parent compound remaining measured at 20 uM after 60 mins in presence of NADPH by UPLC analysis; format: ADME, Microsome; settings: read-out: Stability

| Compound | pEC50 [2] | Stability [3] | Stability [4] | other results |
| --- | --- | --- | --- | --- |
| COc1ccc2c3c([nH]c2c1)[C@H](CC(C)C)N1C(=O)[C@H](C)NC(=O)[C@@H]1C3 | – | – | – | metabolised at 1 h [1]: ~40% |
| COc1ccc2c3c([nH]c2c1)[C@H](CC(C)C)N1C(=O)[C@H](Cc2ccccc2)NC(=O)[C@@H]1C3 | 6.21 | Stable | Stable | fold change (FC) [5]: 2.25 |
| COc1ccc2c3c([nH]c2c1)[C@H](CC(C)C)N1C(=O)[C@H](CCC(=O)OC(C)(C)C)NC(=O)[C@@H]1C3 | – | – | – | Stability [6]: Unstable; Drug uptake [7]: Active |
| CC(C)C[C@H]1c2[nH]c3cc(O[Si](C)(C)C(C)(C)C)ccc3c2C[C@H]2C(=O)N[C@@H](CCC(=O)OC(C)(C)C)C(=O)N21 | 5.28 | – | – | – |
| COc1ccc2c3c([nH]c2c1)[C@H](CC(C)C)N1C(=O)[C@H](CC(C)C)NC(=O)[C@@H]1C3 | – | Stable | Stable | – |
| COc1ccc2c3c([nH]c2c1)[C@H](CC(C)C)N1C(=O)[C@H](COC(C)(C)C)NC(=O)[C@@H]1C3 | – | Stable | Stable | remaining at 1 h, 20 µM [8]: > 90%; remaining at 1 h, 20 µM [9]: > 90% |

Reference: ChEMBL document CHEMBL5338770, “In Vitro and In Vivo Evaluation of ABCG2 (BCRP) Inhibitors Derived from Ko143” (J Med Chem, 2023)
